Test system: not listed separately
Assay: Cytotoxicity evaluation on RAW 264.7 macrophages
Type: cell-based
Conditions: mouse
Compound `O=Cc1cc(Cn2ccc(=O)[nH]c2=O)ccc1O` [Compound 7, 5-((2,4-Dioxo-3,4-dihydropyrimidin-1(2H)-yl)methyl)-2-hydroxybenzaldehyde] has a CC50 greater than 100 µM.
Work on `Cc1nn(Cc2ccc(O)c(C=O)c2)c(=O)[nH]c1=O` [Compound 10, 2-Hydroxy-5-((6-methyl-3,5-dioxo-4,5-dihydro-1,2,4-triazin-2(3H)-yl)methyl) benzaldehyde] yielded a CC50 of 56.1 ± 16.8 µM.
In the case of `Cc1cn(Cc2ccc(O)c(C=O)c2)c(=O)[nH]c1=O` [Compound 8, 2-Hydroxy-5-((5-methyl-2,4-dioxo-3,4-dihydropyrimidin-1(2H)-yl)methyl) benzaldehyde], the CC50 is reported as greater than 100 µM.
Work on `CCCCCCCCCCCCCCCCOP(=O)([O-])OCC[N+](C)(C)C` [Miltefosine, reference compound] yielded a CC50 of 52.2 ± 11.1 µM.
Work on `O=Cc1cc(Cn2cc(F)c(=O)[nH]c2=O)ccc1O` [Compound 9, 5-((5-Fluoro-2,4-dioxo-3,4-dihydropyrimidin-1(2H)-yl)methyl)-2-hydroxybenzaldehyde] yielded a CC50 greater than 100 µM.

Test system: L. donovani intramacrophage amastigotes
Assay: not given
Type: cell-based, Leishmania donovani
Conditions: CC50 RAW 264.7 / IC50 intramacrophage amastigotes
With `Cc1nn(Cc2ccc(O)c(C=O)c2)c(=O)[nH]c1=O` [Compound 10, 2-Hydroxy-5-((6-methyl-3,5-dioxo-4,5-dihydro-1,2,4-triazin-2(3H)-yl)methyl) benzaldehyde] the “SI (CC50/IC50)” value was 1.87.

Test system: not listed separately
Assay: Cytotoxicity, cell growth
Type: cell-based
Conditions: human, human embryonic lung (HEL) fibroblasts
In the case of `Nc1nc(O)c2ncn(COC(CO)CO)c2n1` [Ganciclovir (GCV), Ganciclovir], the CC50 is reported as greater than 394 µM.
Work on `Nc1ccn(C[C@@H](CO)OCP(=O)(O)O)c(=O)n1` [Cidofovir (CDV), Cidofovir] yielded a CC50 greater than 317 µM.
For `Nc1nc2c(ncn2COCCO)c(=O)[nH]1` [Acyclovir (ACV), Acyclovir], the CC50 was greater than 444 µM.
